Data as given in patent US12492210B2, “Tricyclic compounds and their use” (HUTCHISON MEDIPHARMA LIMITED, priority 2019, dated 2025).
pIC50: −log10 of the molar value.

Columns and labels:
MAPK1(ERK2) enzyme = target: T1, MAPK1(ERK2) enzyme (Homo sapiens, UniProt P28482); experiment: Z-Lyte Kinase Assay of ERK2; format: biochemical; conditions: read-out: Example 18 IC50
T1 construct: purchased Invitrogen PV3313
How it was run: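 FRET-based Z-LYTE assay using ERK2 kinase with Ser/Thr3 peptide; compound tested at 0.00046–1 μM final in 2% DMSO. Kinase reaction ran 1 h at 25-30° C, followed by 1 h development. The coumarin/fluorescein emission ratio (445/520 nm) gave % phosphorylation, and IC50 was fitted from inhibition relative to uninhibited control.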

[1] = system: p-RSK (Thr359) in colo205 cells; experiment: p-RSK (Thr359) Acumen Assay in Colo205; format: cell-based; conditions: Homo sapiens, COLO 205, 1 hour compound incubation, read-out: Example 19 IC50
How it was run: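 Colo205 cells (4000/well, seeded overnight in 10% FBS) were exposed 1 hour at 37° C to compound added from a 3–0.001 μM dilution series in 5% DMSO. Cells were then fixed, permeabilised and immunostained for p-RSK Thr359, with PI counterstain. Acumen cytometry gave the percentage of positive cells, normalised to untreated wells and 3 uM GDC0994 wells, for the IC50 fit.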

T1 sequence (P28482 whole entry): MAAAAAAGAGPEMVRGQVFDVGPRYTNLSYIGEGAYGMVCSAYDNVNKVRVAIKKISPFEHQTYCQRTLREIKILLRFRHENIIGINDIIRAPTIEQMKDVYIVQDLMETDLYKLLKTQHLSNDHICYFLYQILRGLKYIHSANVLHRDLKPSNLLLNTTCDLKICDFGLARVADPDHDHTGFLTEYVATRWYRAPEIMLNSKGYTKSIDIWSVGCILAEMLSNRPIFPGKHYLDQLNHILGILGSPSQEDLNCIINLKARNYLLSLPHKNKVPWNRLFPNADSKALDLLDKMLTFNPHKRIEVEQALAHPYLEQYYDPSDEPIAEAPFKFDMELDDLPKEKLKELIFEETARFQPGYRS

| Compound | pIC50 (MAPK1(ERK2) enzyme) | pIC50 [1] |
| --- | --- | --- |
| Cc1cnc(Nc2ccnn2C)nc1-c1cc2c3nnc(C4(C(F)F)CCC4)n3ccn2c1 [Compound 45] | ≥ 8.30 | ≥ 7.00 |
| Cc1c(-c2ccnc(Nc3ccnn3C)n2)cn2c1-c1nnc([C@H](C)Oc3ccccc3F)n1CCC2 [Compound 29] | ≥ 8.30 | ≥ 7.00 |
| Cc1cnc(Nc2ccnn2C)nc1-c1cc2n(c1)[C@H](C)Cn1c-2nnc1C1(C(F)(F)F)CCC1 [Compound 48] | ≥ 8.30 | < 7.00 |
| Cc1cnc(Nc2ccnn2C)cc1-c1cc2n(c1)C[C@H](CF)n1c-2nnc1C1(C(F)(F)F)CCC1 [Compound 82] | ≥ 8.30 | ≥ 7.00 |
| COC[C@H]1Cn2cc(-c3nc(Nc4ccnn4C)ncc3C)nc2-c2nnc(C(F)(F)c3ccccc3F)n21 [Compound 223] | ≥ 8.30 | ≥ 7.00 |
| Cc1cnc(Nc2ccnn2C)cc1-c1cc2n(c1)CC(F)(F)Cn1c-2nnc1C(F)(F)C(F)F [Compound 78] | ≥ 8.30 | ≥ 7.00 |
| Cn1nccc1Nc1cc(-c2cc3n(c2)CCCn2c(Cc4ccccc4C#N)nnc2-3)c(Cl)cn1 [Compound 27] | ≥ 8.30 | ≥ 7.00 |
| Cc1cnc(Nc2ccnn2C2COC2)nc1-c1cc2n(c1)C[C@H](C)n1c-2nnc1C(F)(F)c1ccccc1F [Compound 295] | 8.00 to 8.30 | ≥ 7.00 |
| Cn1nccc1Nc1cc(-c2cc3n(c2)CCCn2c-3nnc2C2(C(C)(F)F)CCC2)c(Cl)cn1 [Compound 49] | ≥ 8.30 | ≥ 7.00 |
| Cc1cnc(Nc2ccnn2C)nc1-c1cc2n(c1)CCC(C)(C)n1c-2nnc1C1(C(F)(F)F)CC1 [Compound 251] | ≥ 8.30 | ≥ 7.00 |
| Cc1cnc(Nc2ccnn2C)nc1-c1cc2c3nnc(C4(C(F)(F)F)CCC4)n3c(C)cn2c1 [Compound 236] | ≥ 8.30 | ≥ 7.00 |
| Cn1nccc1Nc1cc(-c2cc3n(c2)C[C@H](Cc2ccccc2)n2c-3nnc2C2(C(F)(F)F)CCC2)c(Cl)cn1 [Compound 210] | < 8.00 | < 7.00 |
| Cc1cnc(Nc2nncs2)nc1-c1cc2n(c1)C[C@H](C)n1c-2nnc1C(F)(F)c1ccccc1F [Compound 287] | 8.00 to 8.30 | ≥ 7.00 |
| COC[C@H]1Cn2cc(-c3nc(Nc4ccnn4C)ncc3C)cc2-c2nnc(C(F)(F)c3ccccc3Cl)n21 [Compound 202] | 8.00 to 8.30 | ≥ 7.00 |
| Cc1cnc(Nc2ccnn2CCCO)nc1-c1cc2n(c1)C[C@H](C)n1c-2nnc1C(F)(F)c1ccccc1F [Compound 297] | < 8.00 | ≥ 7.00 |
| Cc1cnc(Nc2ccnn2C)nc1-c1cc2n(c1)C[C@H](C(F)F)n1c-2nnc1C(F)(F)c1ccccc1Cl [Compound 205] | < 8.00 | ≥ 7.00 |
| Cc1cnc(Nc2ccnn2C(C)C)nc1-c1cc2n(c1)C[C@H](C)n1c-2nnc1C(F)(F)c1ccccc1F [Compound 292] | < 8.00 | < 7.00 |
| Cn1nccc1Nc1cc(-c2cc3n(c2)CC2(CC2)Cn2c-3nnc2C(F)(F)C(F)F)c(Cl)cn1 [Compound 93] | 8.00 to 8.30 | ≥ 7.00 |
| Cn1nccc1Nc1cc(-c2cc3n(c2)C[C@H](C(F)F)n2c-3nnc2C(F)(F)c2ccccc2F)c(F)cn1 [Compound 196] | 8.00 to 8.30 | ≥ 7.00 |
| Cn1nccc1Nc1nccc(-c2cc3n(c2)CCCn2c(CSc4ccccc4F)nnc2-3)n1 [Compound 19] | ≥ 8.30 | ≥ 7.00 |
| Cn1nccc1Nc1cc(-c2cc3n(c2)C[C@H](CF)n2c-3nnc2C(F)(F)c2ccccc2F)c(Cl)cn1 [Compound 190] | < 8.00 | ≥ 7.00 |

| Compound | pIC50 (MAPK1(ERK2) enzyme) | pIC50 [1] |
| --- | --- | --- |
| Cc1cnc(Nc2ccnn2C)cc1-c1cc2n(c1)C[C@H](CF)n1c-2nnc1C(F)(F)c1noc2ccccc12 [Compound 197] | 8.00 to 8.30 | < 7.00 |
| Cc1cnc(Nc2ccnn2C(F)F)nc1-c1cc2n(c1)C[C@H](C)n1c-2nnc1C(F)(F)c1ccccc1F [Compound 187] | < 8.00 | ≥ 7.00 |
| Cn1nccc1Nc1cc(-c2cc3n(c2)CCCn2c-3nnc2C2(C(F)(F)F)CCC2)c(F)cn1 [Compound 241] | ≥ 8.30 | < 7.00 |
| C[C@H]1Cn2cc(-c3ccnc(Nc4ccnn4C)c3)cc2-c2nnc(C(F)(F)c3ccccc3Cl)n21 [Compound 91] | 8.00 to 8.30 | ≥ 7.00 |
| Cn1nccc1Nc1cc(-c2cc3n(c2)CC2(COC2)Cn2c-3nnc2C2(C(F)(F)F)CCC2)c(Cl)cn1 [Compound 307] | ≥ 8.30 | ≥ 7.00 |
| Cn1nccc1Nc1cc(-c2cc3n(c2)CCCn2c-3nnc2C2(C(F)F)CC(F)(F)C2)c(Cl)cn1 [Compound 120] | ≥ 8.30 | ≥ 7.00 |
| Cc1c(-c2ccnc(Nc3ccnn3C)n2)cn2c1-c1nnc(COc3ccccc3F)n1CCC2 [Compound 16] | ≥ 8.30 | ≥ 7.00 |
| [2H]C([2H])([2H])n1nccc1Nc1cc(-c2cc3n(c2)CCCn2c-3nnc2C2(C(F)(F)F)CCC2)c(C)cn1 [Compound 240] | ≥ 8.30 | ≥ 7.00 |
| Cn1nccc1Nc1cc(-c2cc3n(c2)CC(F)(F)Cn2c-3nnc2C2(C(F)F)COC2)c(Cl)cn1 [Compound 32] | ≥ 8.30 | ≥ 7.00 |
| Cn1nccc1Nc1cc(-c2cc3n(c2)C[C@H](C(F)F)n2c-3nnc2C(F)(F)c2ccccc2F)c(Cl)cn1 [Compound 208] | < 8.00 | ≥ 7.00 |
| Cn1nccc1Nc1nccc(-c2cc3n(c2)CCn2c(COc4ccccc4F)nnc2-3)n1 [Compound 3] | ≥ 8.30 | ≥ 7.00 |
| Cc1cnc(Nc2ccnn2C)cc1-c1cc2n(c1)C[C@H](CF)n1c-2nnc1C(F)(F)c1ccccc1Cl [Compound 172] | 8.00 to 8.30 | ≥ 7.00 |
| Cn1nccc1Nc1cc(-c2cc3n(c2)CC(F)(F)Cn2c(Cn4cc(F)cc4C#N)nnc2-3)c(Cl)cn1 [Compound 219] | ≥ 8.30 | < 7.00 |
| Cc1cnc(Nc2ccnn2C)nc1-c1cc2n(c1)[C@@H](C)Cn1c-2nnc1C1(C(F)(F)F)CCC1 [Compound 47] | ≥ 8.30 | ≥ 7.00 |
| Cn1nccc1Nc1cc(-c2cc3n(c2)C(C(F)F)Cn2c-3nnc2C(F)(F)C(F)F)c(Cl)cn1 (stereo not drawn) [Compound 260] | 8.00 to 8.30 | < 7.00 |
| Cn1nccc1Nc1cc(-c2cc3n(c2)CCCn2c(COC(F)(F)F)nnc2-3)c(Cl)cn1 [Compound 11] | ≥ 8.30 | ≥ 7.00 |
| Cn1nccc1Nc1ncc(F)c(-c2cc3n(c2)CCCn2c-3nnc2C2(C(F)(F)F)CCC2)n1 [Compound 285] | ≥ 8.30 | < 7.00 |
| Cn1nccc1Nc1cc(-c2cc3n(c2)CCCn2c(COCC(F)(F)F)nnc2-3)c(Cl)cn1 [Compound 25] | ≥ 8.30 | < 7.00 |
| Cn1nccc1Nc1cc(-c2cc3n(c2)CC2(CCC2)Cn2c-3nnc2C(F)(F)C(F)F)c(Cl)cn1 [Compound 119] | 8.00 to 8.30 | < 7.00 |
| Cn1nccc1Nc1nccc(-c2cc3n(c2)CCCn2c(CCc4ccccc4F)nnc2-3)n1 [Compound 1, 4-(3-(2-fluorophenethyl)-6,7-dihydro-5H-pyrrolo[1,2-a][1,2,4]triazolo[3,4-c][1,4]diazepin-10-yl)-N-(1-methyl-1H-pyrazol-5-yl)pyrimidin-2-amine] | ≥ 8.30 | < 7.00 |
| Cn1nccc1Nc1cc(-c2cc3n(c2)C[C@H](CF)n2c-3nnc2C(F)(F)c2nccs2)c(Cl)cn1 [Compound 161] | ≥ 8.30 | ≥ 7.00 |
